Assay results taken from ChEMBL document CHEMBL2417521, “Class A G-protein-coupled receptor (GPCR) dimers and bivalent ligands” (J Med Chem, 2013).

Tests used:
[1] = system: HEK293; test: Selectivity ratio of EC50 for mu/kappa opioid receptor in HEK293 cells to EC50 for mu opioid receptor in HEK293 cells; type: cell-based; details: Homo sapiens
[2] = molecular target: Dopamine receptor D2L/neurotensin receptor NTS1 (Homo sapiens) (UniProt P14416+P30989); test: Ratio of Ki for D2L/NTS1 (unknown origin) expressed in HEK293 cell membrane in presence of neurotensin to Ki for D2L/NTS1 (unknown origin) expressed in HEK293 cell membrane in absence of neurotensin; type: cell-based

| SMILES | Ratio EC50 [1] | Ratio Ki [2] |
| --- | --- | --- |
| O=C(N[C@@H]1CC[C@@]2(O)[C@H]3Cc4ccc(O)c5c4[C@@]2(CCN3CC2CC2)[C@H]1O5)c1ccc2ccccc2c1 | 1000 |  |
| CCCN(CCCCNC(=O)c1cnn2ccccc12)C1Cc2ccccc2C1 |  | 34 |
